Patent US10131652B2, “Pyrimidinyloxy benzene derivatives as herbicides” (E. I. DU PONT DE NEMOURS AND COMPANY, priority 2014, dated 2018)

Tests used:
Format in all cases: in vivo
Conditions in all cases: scale 0 to 100
[1] = tested on: waterhemp_RES2 (ALS & HPPD resistant common waterhemp, Amaranthus rudis); test: Test F postemergence plant response
How it was run: (§1)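 Postemergence application to plants 2–18 cm tall (1- to 4-leaf stage), then held in greenhouse 14–21 days. Visual rating against untreated controls on a 0–100 scale (0 no effect, 100 complete control).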

[2] = tested on: waterhemp_RES1 (ALS & Triazine resistant common waterhemp, Amaranthus rudis); test: Test F postemergence plant response
How it was run: as §1

[3] = tested on: barnyardgrass (Echinochloa crus-galli); test: Test F pre-/postemergence plant response
How it was run: (§2)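 Two application timings were run side by side: soil surface treatment of freshly planted seed in silt loam, and foliar treatment of seedlings 2 to 18 cm high. Plants stayed in the greenhouse 14 to 21 days before visual 0–100 injury scoring against controls.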

[4] = tested on: surinam grass (Brachiaria decumbens); test: Test F pre-/postemergence plant response
How it was run: as §2

[5] = tested on: large (Lg) crabgrass (Digitaria sanguinalis); test: Test F pre-/postemergence plant response
How it was run: as §2

[6] = tested on: Italian ryegrass (Lolium multiflorum); test: Test F pre-/postemergence plant response
How it was run: as §2

[7] = tested on: soybean (Glycine max); test: Test F pre-/postemergence plant response
How it was run: as §2

[8] = tested on: giant foxtail (Setaria faberii); test: Test F pre-/postemergence plant response
How it was run: as §2

[9] = tested on: morningglory (Ipomoea coccinea); test: Test F pre-/postemergence plant response
How it was run: as §2

[10] = tested on: lambsquarters (Chenopodium album); test: Test F pre-/postemergence plant response
How it was run: as §2

[11] = tested on: dayflower (Virginia (VA) dayflower, Commelina virginica); test: Test F pre-/postemergence plant response
How it was run: as §2

[12] = tested on: sandbur (southern sandbur, Cenchrus echinatus); test: Test F pre-/postemergence plant response
How it was run: as §2

[13] = tested on: Brazilian crabgrass (Digitaria horizontalis); test: Test F pre-/postemergence plant response
How it was run: as §2

Cc1cc(-c2ccccc2Oc2ncc(Cl)cn2)on1 [Compound 58]
10: Plant response rating, Waterhemp_RES1 ([2]; 8 g ai/ha Postemergence) | Plant response rating, Soybean ([7]; 16 g ai/ha Preemergence) | Plant response rating, Morningglory ([9]; 31 g ai/ha Preemergence) | Plant response rating, Morningglory ([9]; 125 g ai/ha Preemergence) | Plant response rating, Morningglory ([9]; Preemergence) | Plant response rating, Dayflower, VA ([11]; 31 g ai/ha Postemergence) | Plant response rating, Dayflower, VA ([11]; 125 g ai/ha Postemergence) | Plant response rating, Sandbur ([12]; 125 g ai/ha Postemergence) | Plant response rating, Crabgrass, Brazil ([13]; 62 g ai/ha Postemergence) | Plant response rating, Crabgrass, Brazil ([13]; 125 g ai/ha Postemergence)
40: Plant response rating, Foxtail, Giant ([8]; 125 g ai/ha Preemergence)
35: Plant response rating, Soybean ([7]; Preemergence) | Plant response rating, Crabgrass, Brazil ([13]; 62 g ai/ha Preemergence)
75: Plant response rating, Waterhemp_RES2 ([1]; 62 g ai/ha Postemergence) | Plant response rating, Waterhemp_RES1 ([2]; 125 g ai/ha Postemergence) | Plant response rating, Soybean ([7]; 125 g ai/ha Preemergence) | Plant response rating, Crabgrass, Brazil ([13]; 125 g ai/ha Preemergence)
5: Plant response rating, Barnyardgrass ([3]; 125 g ai/ha Postemergence) | Plant response rating, Dayflower, VA ([11]; 8 g ai/ha Postemergence) | Plant response rating, Dayflower, VA ([11]; 16 g ai/ha Postemergence) | Plant response rating, Crabgrass, Brazil ([13]; 8 g ai/ha Postemergence) | Plant response rating, Crabgrass, Brazil ([13]; 16 g ai/ha Postemergence) | Plant response rating, Crabgrass, Brazil ([13]; 31 g ai/ha Postemergence)
80: Plant response rating, Waterhemp_RES2 ([1]; 125 g ai/ha Postemergence) | Plant response rating, Crabgrass, Large ([5]; 125 g ai/ha Preemergence) | Plant response rating, Dayflower, VA ([11]; 125 g ai/ha Preemergence)
90: Plant response rating, Soybean ([7]; 62 g ai/ha Postemergence) | Plant response rating, Lambsquarters ([10]; Preemergence)
20: Plant response rating, Waterhemp_RES1 ([2]; 16 g ai/ha Postemergence) | Plant response rating, Crabgrass, Large ([5]; 16 g ai/ha Preemergence) | Plant response rating, Soybean ([7]; 31 g ai/ha Preemergence) | Plant response rating, Dayflower, VA ([11]; 62 g ai/ha Postemergence)
60: Plant response rating, Waterhemp_RES2 ([1]; 16 g ai/ha Postemergence)
0: Plant response rating, Barnyardgrass ([3]; 8 g ai/ha Postemergence) | Plant response rating, Barnyardgrass ([3]; 8 g ai/ha Preemergence) | Plant response rating, Barnyardgrass ([3]; 16 g ai/ha Postemergence) | Plant response rating, Barnyardgrass ([3]; 16 g ai/ha Preemergence) | Plant response rating, Barnyardgrass ([3]; 31 g ai/ha Postemergence) | Plant response rating, Barnyardgrass ([3]; 31 g ai/ha Preemergence) | Plant response rating, Barnyardgrass ([3]; 62 g ai/ha Postemergence) | Plant response rating, Barnyardgrass ([3]; 62 g ai/ha Preemergence) | Plant response rating, Surinam Grass ([4]; 8 g ai/ha Preemergence) | Plant response rating, Surinam Grass ([4]; 16 g ai/ha Preemergence) | Plant response rating, Surinam Grass ([4]; 31 g ai/ha Preemergence) | Plant response rating, Surinam Grass ([4]; 125 g ai/ha Preemergence) | Plant response rating, Surinam Grass ([4]; Preemergence) | Plant response rating, Crabgrass, Large ([5]; 8 g ai/ha Preemergence) | Plant response rating, Ryegrass, Italian ([6]; 8 g ai/ha Postemergence) | Plant response rating, Ryegrass, Italian ([6]; 8 g ai/ha Preemergence) | Plant response rating, Ryegrass, Italian ([6]; 16 g ai/ha Postemergence) | Plant response rating, Ryegrass, Italian ([6]; 16 g ai/ha Preemergence) | Plant response rating, Ryegrass, Italian ([6]; 31 g ai/ha Postemergence) | Plant response rating, Ryegrass, Italian ([6]; 31 g ai/ha Preemergence) | Plant response rating, Ryegrass, Italian ([6]; 62 g ai/ha Postemergence) | Plant response rating, Ryegrass, Italian ([6]; 125 g ai/ha Postemergence) | Plant response rating, Ryegrass, Italian ([6]; 125 g ai/ha Preemergence) | Plant response rating, Ryegrass, Italian ([6]; Preemergence) | Plant response rating, Soybean ([7]; 8 g ai/ha Preemergence) | Plant response rating, Foxtail, Giant ([8]; 8 g ai/ha Preemergence) | Plant response rating, Foxtail, Giant ([8]; 16 g ai/ha Preemergence) | Plant response rating, Foxtail, Giant ([8]; 31 g ai/ha Preemergence) | Plant response rating, Foxtail, Giant ([8]; 62 g ai/ha Preemergence) | Plant response rating, Morningglory ([9]; 8 g ai/ha Preemergence) | Plant response rating, Morningglory ([9]; 16 g ai/ha Preemergence) | Plant response rating, Lambsquarters ([10]; 16 g ai/ha Preemergence) | Plant response rating, Dayflower, VA ([11]; 8 g ai/ha Preemergence) | Plant response rating, Dayflower, VA ([11]; 16 g ai/ha Preemergence) | Plant response rating, Dayflower, VA ([11]; 31 g ai/ha Preemergence) | Plant response rating, Sandbur ([12]; 8 g ai/ha Postemergence) | Plant response rating, Sandbur ([12]; 8 g ai/ha Preemergence) | Plant response rating, Sandbur ([12]; 16 g ai/ha Postemergence) | Plant response rating, Sandbur ([12]; 16 g ai/ha Preemergence) | Plant response rating, Sandbur ([12]; 31 g ai/ha Postemergence) | Plant response rating, Sandbur ([12]; 31 g ai/ha Preemergence) | Plant response rating, Sandbur ([12]; 62 g ai/ha Postemergence) | Plant response rating, Sandbur ([12]; 125 g ai/ha Preemergence) | Plant response rating, Sandbur ([12]; Preemergence) | Plant response rating, Crabgrass, Brazil ([13]; 8 g ai/ha Preemergence) | Plant response rating, Crabgrass, Brazil ([13]; 16 g ai/ha Preemergence) | Plant response rating, Crabgrass, Brazil ([13]; 31 g ai/ha Preemergence)
50: Plant response rating, Crabgrass, Large ([5]; 31 g ai/ha Preemergence) | Plant response rating, Soybean ([7]; 8 g ai/ha Postemergence) | Plant response rating, Soybean ([7]; 16 g ai/ha Postemergence)
65: Plant response rating, Waterhemp_RES2 ([1]; 8 g ai/ha Postemergence) | Plant response rating, Waterhemp_RES1 ([2]; 31 g ai/ha Postemergence) | Plant response rating, Crabgrass, Large ([5]; 62 g ai/ha Preemergence) | Plant response rating, Lambsquarters ([10]; 31 g ai/ha Preemergence)
70: Plant response rating, Waterhemp_RES2 ([1]; 31 g ai/ha Postemergence) | Plant response rating, Waterhemp_RES1 ([2]; 62 g ai/ha Postemergence) | Plant response rating, Soybean ([7]; 31 g ai/ha Postemergence)
100: Plant response rating, Lambsquarters ([10]; 125 g ai/ha Preemergence)
15: Plant response rating, Barnyardgrass ([3]; 125 g ai/ha Preemergence)
95: Plant response rating, Soybean ([7]; 125 g ai/ha Postemergence)
